This assay addresses T1, FimH-CRD (Escherichia coli, UniProt P08191).
T1 construct: The first 177 amino acids of the FimH protein; thrombin tag (printed as 'fusion protein with thrombin') (cleaved yes); made in house; host or cells: bacteria (pET21b plasmid)
Nature of the assay: Competitive binding assay by fluorescence polarization, assay 2 (compounds prepared by robotics, plates frozen and thawed). In short, it runs like this: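 Compounds at 0.4 nM–75 μM final (12 points, 3-fold steps, duplicate) compete with a 5 nM Alexa 647 mannoside probe for 60 nM FimH-CRD; 5 h room-temperature incubation in pH 7.0 Tris buffer with 2.5% DMSO, FP read-out, Kd from fitted curves. Assay 1 uses manual dilution, assay 2 robot-made frozen/thawed plates.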
T1 sequence (P08191 22-177): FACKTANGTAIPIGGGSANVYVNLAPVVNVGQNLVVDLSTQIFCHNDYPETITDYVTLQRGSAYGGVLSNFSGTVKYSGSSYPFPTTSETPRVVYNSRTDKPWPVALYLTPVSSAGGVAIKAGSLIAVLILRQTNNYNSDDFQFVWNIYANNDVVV
In turn, `CNC(=O)c1cccc(Cc2cccc([C@H]3O[C@H](CO)[C@@H](O)[C@H](O)[C@@H]3O)c2)c1` [Compound 157, N-methyl-3-[[3-[(2R,3S,4R,5S,6R)-3,4,5-trihydroxy-6-(hydroxymethyl)tetrahydropyran-2-yl]phenyl]methyl]benzamide] yielded an equilibrium dissociation constant (Kd) of 34.3 ± 8.1 nM.
In turn, `CNC(=O)c1cccc(-c2ccc(-c3ccc([C@H]4O[C@H](CO)[C@@H](O)[C@H](O)[C@@H]4O)cc3)c(C)c2)c1` [Compound 158, N-methyl-3-[3-methyl-4-[4-[(2R,3S,4R,5S,6R)-3,4,5-trihydroxy-6-(hydroxymethyl)tetrahydropyran-2-yl]phenyl]phenyl]benzamide] gave a Kd of 20.5 ± 4.3 nM.
Under `CNC(=O)c1cccc(-c2ccc(-c3cccc([C@H]4O[C@H](CO)[C@@H](O)[C@H](O)[C@@H]4O)c3)c(C)c2)c1` [Compound 159, N,3′-dimethyl-3″-((2R,3S,4R,5S,6R)-3,4,5-trihydroxy-6-(hydroxymethyl)tetrahydro-2H-pyran-2-yl)-[1,1′:4′,1″-terphenyl]-3-carboxamide] stands 15.6 ± 3.4 nM.
For the molecule `Cc1nnc(-c2ccc3cc(-c4cccc([C@H]5O[C@H](CO)[C@@H](O)[C@H](O)[C@@H]5O)c4)ccc3c2)o1` [Compound 161, (2R,3S,4R,5S,6R)-2-(hydroxymethyl)-6-[3-[6-(5-methyl-1,3,4-oxadiazol-2-yl)-2-naphthyl]phenyl]tetrahydropyran-3,4,5-triol], the affinity, expressed as Kd, was 6.6 ± 1.2 nM.
`OC[C@H]1O[C@H](c2cccc(-c3nc4c(Cl)cc(Cl)cc4[nH]3)c2)[C@@H](O)[C@@H](O)[C@@H]1O` [Compound 162]: the Kd was found to be 39.5 ± 11 nM.
On to `OC[C@H]1O[C@H](c2cccc(-c3nc4ccccc4[nH]3)c2)[C@@H](O)[C@@H](O)[C@@H]1O` [Compound 163], for which binding was characterised by a dissociation constant (Kd) of 82.1 ± 0.6 nM.
Under `Cc1ccc2[nH]c(-c3cccc([C@H]4O[C@H](CO)[C@@H](O)[C@H](O)[C@@H]4O)c3)nc2c1` [Compound 164] stands 50.2 ± 14.1 nM; under `OC[C@H]1O[C@H](c2cccc(-c3nc4c(F)cc(F)cc4[nH]3)c2)[C@@H](O)[C@@H](O)[C@@H]1O` [Compound 165], 28.9 ± 11.7 nM.
`OC[C@H]1O[C@H](c2cccc(-c3nc4cc(F)ccc4[nH]3)c2)[C@@H](O)[C@@H](O)[C@@H]1O` [Compound 166]: binding was characterised by a dissociation constant (Kd) of 44.1 ± 19.9 nM.
`N#Cc1ccc2[nH]c(-c3cccc([C@H]4O[C@H](CO)[C@@H](O)[C@H](O)[C@@H]4O)c3)nc2c1` [Compound 167] displayed a Kd of 32.1 ± 4.3 nM.
Under `O=C(c1ccccc1)c1ccc2[nH]c(-c3cccc([C@H]4O[C@H](CO)[C@@H](O)[C@H](O)[C@@H]4O)c3)nc2c1` [Compound 168] stands 42.5 ± 18.3 nM; under `CS(=O)(=O)c1ccc2[nH]c(-c3cccc([C@H]4O[C@H](CO)[C@@H](O)[C@H](O)[C@@H]4O)c3)nc2c1` [Compound 169], 25.7 ± 0.4 nM; under `OC[C@H]1O[C@H](c2cccc(-c3nc4cc(Cl)ccc4[nH]3)c2)[C@@H](O)[C@@H](O)[C@@H]1O` [Compound 170], 32.4 ± 14.4 nM.
Under `OC[C@H]1O[C@H](c2cccc(-c3nc4c(C(F)(F)F)cccc4[nH]3)c2)[C@@H](O)[C@@H](O)[C@@H]1O` [Compound 171] stands 32.1 ± 19.1 nM; under `CNC(=O)c1ccc2[nH]c(-c3cccc([C@H]4O[C@H](CO)[C@@H](O)[C@H](O)[C@@H]4O)c3)nc2c1` [Compound 172, N-methyl-2-(3-((2R,3S,4R,5S,6R)-3,4,5-trihydroxy-6-(hydroxymethyl)tetrahydro-2H-pyran-2-yl)phenyl)-1H-benzo[d]imidazole-5-carboxamide], 530 ± 714 nM; under `CNC(=O)c1cccc2[nH]c(-c3cccc([C@H]4O[C@H](CO)[C@@H](O)[C@H](O)[C@@H]4O)c3)nc12` [Compound 173, N-methyl-2-(3-((2R,3S,4R,5S,6R)-3,4,5-trihydroxy-6-(hydroxymethyl)tetrahydro-2H-pyran-2-yl)phenyl)-1H-benzo[d]imidazole-4-carboxamide], 54.6 ± 23 nM.
Under `OC[C@H]1O[C@H](c2cccc(-c3ccc(-c4cccnc4)cc3)c2)[C@@H](O)[C@@H](O)[C@@H]1O` [Compound 174] stands 13.6 ± 3.4 nM; under `Cc1nc(-c2ccc(-c3cccc([C@H]4O[C@H](CO)[C@@H](O)[C@H](O)[C@@H]4O)c3)cc2)no1` [Compound 175], 10.2 ± 0.04 nM.
Molecule `Cc1nnc(-c2ccc(-c3cccc([C@H]4O[C@H](CO)[C@@H](O)[C@H](O)[C@@H]4O)c3)cc2)s1` [Compound 176] had a Kd of 21.1 ± 2.6 nM.
Under `Cc1nc(-c2ccc(-c3cccc([C@H]4O[C@H](CO)[C@@H](O)[C@H](O)[C@@H]4O)c3)cc2)cs1` [Compound 177] stands 12.1 ± 5.8 nM.
Under `OC[C@H]1O[C@H](c2cccc(-c3ccc(-c4nnco4)cc3)c2)[C@@H](O)[C@@H](O)[C@@H]1O` [Compound 178] stands 17.9 ± 3.7 nM; under `Cn1cnc2cc(-c3cccc([C@H]4O[C@H](CO)[C@@H](O)[C@H](O)[C@@H]4O)c3)ccc21` [Compound 179, (2R,3S,4R,5S,6R)-2-(hydroxymethyl)-6-(3-(1-methyl-1H-benzo[d]imidazol-5-yl)phenyl)tetrahydro-2H-pyran-3,4,5-triol], 20.4 ± 0.8 nM.
Under `CNC(=O)Cc1nnc(-c2ccc(-c3cccc([C@H]4O[C@H](CO)[C@@H](O)[C@H](O)[C@@H]4O)c3)cc2)o1` [Compound 181, N-methyl-2-(5-(3′-((2R,3S,4R,5S,6R)-3,4,5-trihydroxy-6-(hydroxymethyl)tetrahydro-2H-pyran-2-yl)-[1,1′-biphenyl]-4-yl)-1,3,4-oxadiazol-2-yl)acetamide] stands 21.7 ± 4.2 nM; under `COCCOCCNC(=O)Cc1nnc(-c2ccc(-c3cccc([C@H]4O[C@H](CO)[C@@H](O)[C@H](O)[C@@H]4O)c3)cc2)o1` [Compound 182, N-(2-(2-methoxyethoxy)ethyl)-2-(5-(3′-((2R,3S,4R,5S,6R)-3,4,5-trihydroxy-6-(hydroxymethyl)tetrahydro-2H-pyran-2-yl)-[1,1′-biphenyl]-4-yl)-1,3,4-oxadiazol-2-yl)acetamide], 20.2 ± 4.7 nM.
The molecule `Cc1nnc(-c2ccc(-c3cccc([C@H]4O[C@H](CO)[C@@H](O)[C@H](O)[C@@H]4O)c3)nc2)o1` [Compound 183, (2R,3S,4R,5S,6R)-2-(hydroxymethyl)-6-(3-(5-(5-methyl-1,3,4-oxadiazol-2-yl)pyridin-2-yl)phenyl)tetrahydro-2H-pyran-3,4,5-triol] showed a Kd of 24.8 ± 8.3 nM.
Under `CC(=O)c1ccc(-c2cccc([C@H]3O[C@H](CO)[C@@H](O)[C@H](O)[C@@H]3O)c2)cc1` [Compound 184, 1-(3′-((2R,3S,4R,5S,6R)-3,4,5-trihydroxy-6-(hydroxymethyl)tetrahydro-2H-pyran-2-yl)-[1,1′-biphenyl]-4-yl)ethanone] stands 18.2 ± 8.4 nM.
Under `N#Cc1ccc(Oc2cccc([C@H]3O[C@H](CO)[C@@H](O)[C@H](O)[C@@H]3O)c2)cc1` [Compound 185, 4-[3-[(2R,3S,4R,5S,6R)-3,4,5-trihydroxy-6-(hydroxymethyl)tetrahydropyran-2-yl]phenoxy]benzonitrile] stands 11.7 ± 7.5 nM.
For the molecule `CC(=O)c1ccc(Oc2cccc([C@H]3O[C@H](CO)[C@@H](O)[C@H](O)[C@@H]3O)c2)cc1` [Compound 186, 1-[4-[3-[(2R,3S,4R,5S,6R)-3,4,5-trihydroxy-6-(hydroxymethyl)tetrahydropyran-2-yl]phenoxy]phenyl]ethanone], the Kd came out at 12.3 ± 8.9 nM.
The molecule `CNC(=O)c1ccc(Oc2cc([C@H]3O[C@H](CO)[C@@H](O)[C@H](O)[C@@H]3O)ccc2OC)cc1` [Compound 187, 4-[2-methoxy-5-[(2R,3S,4R,5S,6R)-3,4,5-trihydroxy-6-(hydroxymethyl)tetrahydropyran-2-yl]phenoxy]-N-methyl-benzamide] came in with a Kd of 9.9 ± 1.9 nM.
Under `CNC(=O)c1cccc(Oc2cc([C@H]3O[C@H](CO)[C@@H](O)[C@H](O)[C@@H]3O)ccc2OC)c1` [Compound 188, 3-[2-methoxy-5-[(2R,3S,4R,5S,6R)-3,4,5-trihydroxy-6-(hydroxymethyl)tetrahydropyran-2-yl]phenoxy]-N-methyl-benzamide] stands 11.1 ± 1.1 nM; under `COC(=O)c1ccc(Oc2cc([C@H]3O[C@H](CO)[C@@H](O)[C@H](O)[C@@H]3O)ccc2OC)cc1` [Compound 189, Methyl-4-[2-methoxy-5-[(2R,3S,4R,5S,6R)-3,4,5-trihydroxy-6-(hydroxymethyl)tetrahydropyran-2-yl]phenoxy]benzoate], 8.1 ± 2.7 nM; under `OC[C@H]1O[C@H](c2cccc(O)c2F)[C@@H](O)[C@@H](O)[C@@H]1O` [Compound 190, (2R,3S,4R,5S,6R)-2-(2-fluoro-3-hydroxy-phenyl)-6-(hydroxymethyl)tetrahydropyran-3,4,5-triol], 24.1 ± 15.3 nM.
Under `OC[C@H]1O[C@H](c2cc(O)ccc2OC(F)(F)F)[C@@H](O)[C@@H](O)[C@@H]1O` [Compound 191, (2R,3S,4R,5S,6R)-2-(hydroxymethyl)-6-[5-hydroxy-2-(trifluoromethoxy)phenyl]tetrahydropyran-3,4,5-triol] stands 37.4 ± 17.2 nM.
Under `OC[C@H]1O[C@H](c2cc(O)ccc2F)[C@@H](O)[C@@H](O)[C@@H]1O` [Compound 192, (2R,3S,4R,5S,6R)-2-(2-fluoro-5-hydroxy-phenyl)-6-(hydroxymethyl)tetrahydropyran-3,4,5-triol] stands 56.5 ± 9.1 nM.
Molecule `OC[C@H]1O[C@H](c2ccc(F)c(O)c2)[C@@H](O)[C@@H](O)[C@@H]1O` [Compound 193, (2R,3S,4R,5S,6R)-2-(4-fluoro-3-hydroxy-phenyl)-6-(hydroxymethyl)tetrahydropyran-3,4,5-triol] gave a Kd of 30.6 ± 1.1 nM.
In turn, `Cc1cc(O)cc([C@H]2O[C@H](CO)[C@@H](O)[C@H](O)[C@@H]2O)c1` [Compound 194, (2R,3S,4R,5S,6R)-2-(hydroxymethyl)-6-(3-hydroxy-5-methyl-phenyl)tetrahydropyran-3,4,5-triol] yielded a Kd of 31 ± 29.4 nM.

For the origin of these results see patent US20130261077A1 (priority 2012, published 2013).
